Data on one compound can be found in article PMC12431657, “Discovery and mechanistic insights of dibenzoylmethane as a broad spectrum inhibitor of coronavirus” (PLOS Pathogens, 2025).

Test [1] deals with HCoV-OC43. Briefly: Time-of-addition assay. It counts as cell-based. To be noted: replicates. As for the experimental part:
To obtain further insight into the stage at which DBM inhibits the replication of HCoV-OC43 and other HCoVs, RD cells were incubated with compounds, including DBM, remdesivir (RDV), and chloroquine (CQ), at different stages of viral infection. Viral RNA from the supernatant was extracted and quantitatively analysed via qRT-PCR. […] For the viral binding assay, cells were cultured in the presence or absence of DBM at different concentrations for 1 hour before being infected with HCoV-OC43 at an MOI of 50, and then were placed on ice for 2 hours for the viral particles to bind to the membrane of the host cells, followed by washing with PBS. […] In addition to binding to receptors from host cells, the spike proteins of HCoV-OC43 could also trigger membrane fusion when HCoV-OC43 spike plasmid-transfected 293T cells were seeded together with RD cells as target cells, and the addition of DBM had no effect on this process (S5C Fig). To examine whether DBM inhibits viral internalisation, cells were inoculated with HCoV-OC43 for 1 hour on ice before being treated with either DBM or DMSO, and CQ was included to prevent endosomal acidification. Subsequently, HCoV-OC43 nucleocapsid proteins were immunostained with CoraLite Plus 488 to assess viral internalisation via confocal microscopy. […] To determine whether DBM influences viral release, we quantified viral RNA both intracellularly and in the supernatant.
To evaluate the effects of DBM on the life cycle of HCoV-229E and HCoV-OC43, fresh culture medium containing 0.6 μM DBM, 0.1 μM remdesivir (RDV), or 10 μM chloroquine (CQ) was supplemented with preseeded cells at different time points relative to infection (entry group: 0 to –2 hours; postinfection group: 2–12 hours; and full-time group: 0 to –12 hours). DMSO served as the control. At 24 hours postinfection, the number of intracellular virus RNA copies was quantified by qRT-PCR as previously described.

In test [2] the test system is HCoV-OC43. It counts as cell-based. Particulars: transient expression or RDV control, replicates.

“And” between values parts separate entries of the source, which are not always exact repeats. Equal values may be shown once.

`CCC(CC)COC(=O)[C@H](C)N[P@](=O)(OC[C@H]1O[C@@](C#N)(c2ccc3c(N)ncnn23)[C@H](O)[C@@H]1O)Oc1ccccc1` [RDV]: the “time-of-addition, viral inhibition” value was 67.6 and 36.5 and 35.3 in test [1] (Entry); 99.4 and 98.9 and 99.6 in test [1] (Full-Time); 98.3 and 99.4 and 98.6 in test [1] (Post-Entry). Further, the “HCoV-OC43 inhibition (Fig5C)” value in test [2] was 97.17 and 71.11 and 82.55.
